Results published in patent US8877933B2, “Thermodynamically stable form of a tosylate salt” (Bayer Intellectual Property GmbH, priority 2004, dated 2014).

Assay: Thermodynamic and storage stability of the crystal forms of the compound of the formula (I)
Format: physicochemical
Details: for thermodynamic stability of the crystal form: room temperature

SMILES	storage stability (after processing via suspensions)	thermodynamic stability of the crystal form
CNC(=O)c1cc(Oc2ccc(NC(=O)Nc3ccc(Cl)c(C(F)(F)F)c3)cc2)ccn1.Cc1ccc(S(=O)(=O)O)cc1 [polymorph I, 4-{4-[({[4-chloro-3-(trifluoromethyl)phenyl]amino}carbonyl)-amino]phenoxy}-N-methylpyridine-2-carboxamide tosylate in the polymorph I]	storage-stable even after processing via suspensions	thermodynamically stable at room temperature
CNC(=O)c1cc(Oc2ccc(NC(=O)Nc3ccc(Cl)c(C(F)(F)F)c3)cc2)ccn1.Cc1ccc(S(=O)(=O)O)cc1 [polymorph II, 4-{4-[({[4-Chloro-3-(trifluoromethyl)phenyl]amino}carbonyl)amino]phenoxy}-N-methylpyridine-2-carboxamide tosylate in the polymorph II]	–	metastable
